Test results published in US20240150345A1, “GCN2 MODULATING COMPOUNDS AND USES THEREOF” (HiberCell, Inc., priority 2021, published 2024).

Target: T1, GCN2 (Homo sapiens, UniProt Q9P2K8)
T1 construct: purchased Carma Biosciences (so in the source)
Assay: TR-FRET biochemical assay for inhibition of GCN2 activity
Settings: 2 nM GCN2, 100 nM GFP-eIF2α, 150 μM ATP, 1.5 hours at 25° C.
Procedure: Exemplary compounds from the above Examples were tested for ability to inhibit GCN2 activity using a time resolved fluorescence energy transfer (TR-FRET) assay. Assay procedures and results are described below for Examples 12-105.
GCN2 protein was obtained from Carma Biosciences (cat #05-153). The protein was diluted in assay buffer (ThermoFisher Scientific, #PV6135), 2 mM dithiothreitol (DTT), to obtain a final concentration of 2 nM and 5 μL was plated in a 384-well white assay plate. Test compounds were serially diluted to 11 concentrations by 3-fold dilution in DMS0 and 10 nL of stock was plated into 384 well white assay plate. DMS0 was used as a vehicle control. GFP-eIF2α protein was obtained from ThermoFisher (cat #PV4809). The protein was diluted in assay buffer to a 2× concentration of 200 nM along with 300 μM ATP (final concentration of 100 nM GFP-eIF2α and 150 μM ATP) in the presence of 2 mM DTT and a […] was added to each well containing the GCN2 protein and test compound. The plate was incubated in the dark at 25° C. for 1.5 hours, shaking at 1250 rpm. Tb-anti P-eIF2α (ThermoFisher cat #PV4815) was diluted to a to a concentration of 1 nM in TR-FRET Dilution Buffer (ThermoFisher cat #PV3574). 10 μL of the Tb-anti P-eIF2a solution was added to the TR-FRET reaction. The plate was incubated in the dark for 2 h at 25° C. shaking at 600 rpm. The FRET signal from the plate was read on a Envision (PerkinElmer) plate reader: • Label 1: Excitation: 340 nm, bandwidth 30 nm; Emission: 495 nm, bandwidth 10 nm. Lag time: 100 μsec. Integration time: 400 μsec. Flashes: 30. • Label 2: Excitation: 340 nm, bandwidth 30 nm; Emission: 520 nm, bandwidth 25 nm. Lag time: 100 μsec. Integration time: 400 μsec. Flashes: 30
The data were analyzed using GraphPad Prism employing a 4-parameter sigmoidal curve fit.

T1 sequence (Q9P2K8 whole entry): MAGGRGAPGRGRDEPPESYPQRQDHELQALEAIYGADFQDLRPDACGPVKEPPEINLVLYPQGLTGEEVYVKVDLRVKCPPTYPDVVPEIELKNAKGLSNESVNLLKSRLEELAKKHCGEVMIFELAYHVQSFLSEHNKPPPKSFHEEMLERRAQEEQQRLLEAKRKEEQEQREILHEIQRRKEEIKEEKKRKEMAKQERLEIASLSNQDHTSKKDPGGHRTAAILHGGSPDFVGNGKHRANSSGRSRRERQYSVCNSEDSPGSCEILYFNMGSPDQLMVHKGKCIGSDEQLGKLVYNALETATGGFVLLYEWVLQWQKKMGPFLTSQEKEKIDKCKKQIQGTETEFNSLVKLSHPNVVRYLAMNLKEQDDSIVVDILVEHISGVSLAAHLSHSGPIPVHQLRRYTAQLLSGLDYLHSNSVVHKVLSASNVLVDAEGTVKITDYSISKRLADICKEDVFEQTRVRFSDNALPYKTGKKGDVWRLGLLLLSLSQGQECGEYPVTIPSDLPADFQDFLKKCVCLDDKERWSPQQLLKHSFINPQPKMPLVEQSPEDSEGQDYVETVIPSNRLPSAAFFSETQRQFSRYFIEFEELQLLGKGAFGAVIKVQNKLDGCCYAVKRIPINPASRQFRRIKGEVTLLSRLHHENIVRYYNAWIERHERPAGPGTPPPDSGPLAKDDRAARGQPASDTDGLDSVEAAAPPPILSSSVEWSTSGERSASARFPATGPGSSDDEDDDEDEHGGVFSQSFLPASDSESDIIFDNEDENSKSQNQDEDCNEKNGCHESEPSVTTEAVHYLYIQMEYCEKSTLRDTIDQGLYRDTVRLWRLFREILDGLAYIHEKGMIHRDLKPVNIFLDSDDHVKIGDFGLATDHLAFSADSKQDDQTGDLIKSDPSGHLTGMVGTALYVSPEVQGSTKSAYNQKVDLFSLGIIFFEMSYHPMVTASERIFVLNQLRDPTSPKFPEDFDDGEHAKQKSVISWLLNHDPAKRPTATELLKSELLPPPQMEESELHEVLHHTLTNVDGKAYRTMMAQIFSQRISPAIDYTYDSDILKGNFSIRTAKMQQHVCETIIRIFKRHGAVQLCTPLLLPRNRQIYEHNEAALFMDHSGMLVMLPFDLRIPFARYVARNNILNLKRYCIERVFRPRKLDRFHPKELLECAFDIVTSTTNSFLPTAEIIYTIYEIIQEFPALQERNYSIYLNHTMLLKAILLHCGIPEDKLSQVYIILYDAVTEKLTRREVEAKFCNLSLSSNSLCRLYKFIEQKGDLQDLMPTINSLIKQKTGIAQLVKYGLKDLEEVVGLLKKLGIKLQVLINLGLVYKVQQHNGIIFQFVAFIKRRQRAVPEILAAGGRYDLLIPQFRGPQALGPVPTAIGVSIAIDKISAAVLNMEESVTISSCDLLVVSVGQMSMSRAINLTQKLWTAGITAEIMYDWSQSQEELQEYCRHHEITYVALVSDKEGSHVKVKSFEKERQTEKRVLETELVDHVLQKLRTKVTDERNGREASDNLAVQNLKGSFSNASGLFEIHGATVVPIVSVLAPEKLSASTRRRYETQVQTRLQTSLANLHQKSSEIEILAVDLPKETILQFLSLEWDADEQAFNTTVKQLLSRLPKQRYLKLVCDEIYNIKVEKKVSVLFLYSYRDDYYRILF

`COc1ncc(Cl)cc1S(=O)(=O)Nc1ccc(F)c(COc2cnc3[nH]ncc3c2)c1F` [Compound 1, 5-chloro-N-[2,4-difluoro-3-([1H-pyrazolo[3,4-b]pyridin-5-yloxy]methyl)phenyl]-2-methoxypyridine-3-sulfonamide] was tested, and the IC50 was under 50 nM.
For `Cc1ncc(F)cc1S(=O)(=O)Nc1ccc(F)c(CCc2cnc3[nH]ncc3c2)c1F` [Compound 9, N-(3-(2-(1H-pyrazolo[3,4-b]pyridin-5-yl)ethyl)-2,4-difluorophenyl)-5-fluoro-2-methylpyridine-3-sulfonamide], the IC50 was under 50 nM.
`COc1ncc(F)cc1S(=O)(=O)Nc1ccc(F)c(COc2cnc3[nH]ncc3c2)c1F` [Compound 21, N-[2,4-difluoro-3-([1H-pyrazolo[3,4-b]pyridin-5-yloxy]methyl)phenyl]-5-fluoro-2-methoxypyridine-3-sulfonamide] was tested, and the IC50 was under 50 nM.
In the case of `COc1ncc(Cl)cc1S(=O)(=O)Nc1ccc(F)c(CCc2cnc3n2CCOC3)c1F` [Compound 5, 5-chloro-N-[2,4-difluoro-3-(2-[5H,6H,8H-imidazo[2,1-c][1,4]oxazin-3-yl]ethyl)phenyl]-2-methoxypyridine-3-sulfonamide], the IC50 is reported as over 1000 nM.
`COc1ncc(F)cc1S(=O)(=O)Nc1ccc(F)c(COc2cnc3[nH]nc(CC(F)(F)F)c3c2)c1F` [Compound 80, N-[2,4-difluoro-3-([[3-(2,2,2-trifluoroethyl)-1H-pyrazolo[3,4-b]pyridin-5-yl]oxy]methyl)phenyl]-5-fluoro-2-methoxypyridine-3-sulfonamide] was tested, and the IC50 was under 50 nM.
`COc1ncc(C#N)cc1S(=O)(=O)Nc1ccc(F)c(COc2cnc3[nH]nc(C(C)C)c3c2)c1F` [Compound 55, 5-cyano-N-[2,4-difluoro-3-[([3-isopropyl-1H-pyrazolo[3,4-b]pyridin-5-yl]oxy)methyl]phenyl]-2-methoxypyridine-3-sulfonamide] was tested, and the IC50 was 50 to 500 nM.
`COc1ncc(F)cc1S(=O)(=O)Nc1ccc(F)c(NCc2cnc3[nH]nc(C)c3c2)c1F` [Compound 57, N-[2,4-difluoro-3-[([3-methyl-1H-pyrazolo[3,4-b]pyridin-5-yl]methyl)amino]phenyl]-5-fluoro-2-methoxypyridine-3-sulfonamide] gave an IC50 of 50 to 500 nM.
`COc1ncc(C#N)cc1S(=O)(=O)Nc1ccc(F)c(COc2cnc3[nH]nc(C)c3c2)c1F` [Compound 50, 5-cyano-N-[2,4-difluoro-3-[([3-methyl-1H-pyrazolo[3,4-b]pyridin-5-yl]oxy)methyl]phenyl]-2-methoxypyridine-3-sulfonamide] gave an IC50 of under 50 nM.
With `COc1ncc(F)cc1S(=O)(=O)Nc1ccc(F)c(COc2cnc3[nH]ncc3c2OC)c1F` [Compound 23, N-[2,4-difluoro-3-[([4-methoxy-1H-pyrazolo[3,4-b]pyridin-5-yl]oxy)methyl]phenyl]-5-fluoro-2-methoxypyridine-3-sulfonamide] the IC50 was 50 to 500 nM.
With `COc1ncc(Cl)cc1S(=O)(=O)Nc1ccc(F)c(CCc2ccn3cncc3c2)c1F` [Compound 19, 5-chloro-N-[2,4-difluoro-3-(2-[imidazo[1,5-a]pyridin-7-yl]ethyl)phenyl]-2-methoxypyridine-3-sulfonamide] the IC50 was over 1000 nM.
Work on `Cc1ncc(F)cc1S(=O)(=O)Nc1ccc(F)c(COc2cnc3[nH]nc(C)c3c2)c1Cl` [Compound 74, N-[2-chloro-4-fluoro-3-[([3-methyl-1H-pyrazolo[3,4-b]pyridin-5-yl]oxy)methyl]phenyl]-5-fluoro-2-methylpyridine-3-sulfonamide] yielded an IC50 of under 50 nM.
`COc1ncc(Cl)cc1S(=O)(=O)Nc1ccc(F)c(COc2cnc3[nH]ncc3c2C)c1F` [Compound 22, 5-chloro-N-[2,4-difluoro-3-[([4-methyl-1H-pyrazolo[3,4-b]pyridin-5-yl]oxy)methyl]phenyl]-2-methoxypyridine-3-sulfonamide] gave an IC50 of under 50 nM.
`Cc1ncc(F)cc1S(=O)(=O)Nc1ccc(Cl)c(COc2cnc3[nH]nc(C)c3c2)c1F` [Compound 77, N-(4-chloro-2-fluoro-3-(((3-methyl-1H-pyrazolo[3,4-b]pyridin-5-yl)oxy)methyl)phenyl)-5-fluoro-2-methylpyridine-3-sulfonamide] was tested, and the IC50 was under 50 nM.
Work on `COc1ncc(F)cc1S(=O)(=O)Nc1ccc(F)c(COc2cnn3cnc(C)c3c2)c1F` [Compound 82, N-[2,4-difluoro-3-[([5-methylimidazo[1,5-b]pyridazin-3-yl]oxy)methyl]phenyl]-5-fluoro-2-methoxypyridine-3-sulfonamide] yielded an IC50 of under 50 nM.
`COc1ncc(F)cc1S(=O)(=O)Nc1ccc(F)c(COc2cnc3[nH]nc(C)c3c2-c2ccncc2)c1F` [Compound 87, N-[2,4-difluoro-3-([[3-methyl-4-(pyridin-4-yl)-1H-pyrazolo[3,4-b]pyridin-5-yl]oxy]methyl)phenyl]-5-fluoro-2-methoxypyridine-3-sulfonamide] was tested, and the IC50 was 50 to 500 nM.
Work on `CCc1n[nH]c2ncc(OCc3c(F)ccc(NS(=O)(=O)c4cc(F)cnc4OC)c3F)cc12` [Compound 39, N-[3-[([3-ethyl-1H-pyrazolo[3,4-b]pyridin-5-yl]oxy)methyl]-2,4-difluorophenyl]-5-fluoro-2-methoxypyridine-3-sulfonamide] yielded an IC50 of under 50 nM.
In the case of `COc1ncc(C#N)cc1S(=O)(=O)Nc1ccc(F)c(NCc2cnc3[nH]nc(C)c3c2)c1F` [Compound 49, 5-cyano-N-[2,4-difluoro-3-[([3-methyl-1H-pyrazolo[3,4-b]pyridin-5-yl]methyl)amino]phenyl]-2-methoxypyridine-3-sulfonamide], the IC50 is reported as 50 to 500 nM.
Compound `Cc1ncc(F)cc1S(=O)(=O)Nc1ccc(F)c(COc2cnc3[nH]nc(C)c3c2)c1F` [Compound 38, N-[2,4-difluoro-3-[([3-methyl-1H-pyrazolo[3,4-b]pyridin-5-yl]oxy)methyl]phenyl]-5-fluoro-2-methylpyridine-3-sulfonamide] has an IC50 of under 50 nM.
`COc1ncc(Cl)cc1S(=O)(=O)Nc1ccc(F)c(OCc2cnc3[nH]ncc3c2)c1F` [Compound 4, 5-chloro-N-(2,4-difluoro-3-[1H-pyrazolo[3,4-b]pyridin-5-ylmethoxy]phenyl)-2-methoxypyridine-3-sulfonamide] showed an IC50 of under 50 nM.
`COc1ncc(F)cc1S(=O)(=O)Nc1ccc(F)c(COc2cnc3[nH]nc(CCF)c3c2)c1F` [Compound 76, N-[2,4-difluoro-3-([[3-(2-fluoroethyl)-1H-pyrazolo[3,4-b]pyridin-5-yl]oxy]methyl)phenyl]-5-fluoro-2-methoxypyridine-3-sulfonamide] showed an IC50 of under 50 nM.
With `COc1ncc(Cl)cc1S(=O)(=O)Nc1ccc(F)c(NCc2cnc3[nH]ncc3c2)c1F` [Compound 6, 5-chloro-N-[2,4-difluoro-3-([1H-pyrazolo[3,4-b]pyridin-5-ylmethyl]amino)phenyl]-2-methoxypyridine-3-sulfonamide] the IC50 was 50 to 500 nM.
In the case of `CCn1ncc2ncc(CCc3c(F)ccc(NS(=O)(=O)c4cc(Cl)cnc4OC)c3F)cc21` [Compound 33, 5-chloro-N-[3-(2-[1-ethylpyrazolo[4,3-b]pyridin-6-yl]ethyl)-2,4-difluorophenyl]-2-methoxypyridine-3-sulfonamide], the IC50 is reported as under 50 nM.
Compound `COc1ncc(F)cc1S(=O)(=O)Nc1ccc(F)c(COc2cnc3[nH]nc(C)c3c2-c2ccccc2)c1F` [Compound 85, N-[2,4-difluoro-3-[([3-methyl-4-phenyl-1H-pyrazolo[3,4-b]pyridin-5-yl]oxy)methyl]phenyl]-5-fluoro-2-methoxypyridine-3-sulfonamide] has an IC50 of 50 to 500 nM.
